PubChem BioAssay (NCI)
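Assay format: 96-well plates, 48-hour exposure. The concentration for 50% growth inhibition is given as GI50. At the TGI there is no net growth.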

Columns and labels:
Assay in all cases: growth of human tumour cells (NCI), 48 h
[1] = system: CCRF-CEM leukemia
[2] = system: OVCAR-8 ovarian
[3] = system: M14 melanoma
[4] = system: T-47D breast
[5] = system: SK-MEL-2 melanoma
[6] = system: MDA-MB-231 breast
[7] = system: MCF7 breast
[8] = system: BT-549 breast
[9] = system: NCI-H460 lung
[10] = system: MOLT-4 leukemia
[11] = system: OVCAR-4 ovarian
[12] = system: SK-MEL-5 melanoma
[13] = system: A498 renal
[14] = system: SNB-75 CNS
[15] = system: ACHN renal
[16] = system: TK-10 renal
[17] = system: SK-MEL-28 melanoma
[18] = system: SR leukemia
[19] = system: RPMI-8226 leukemia
[20] = system: EKVX NSCLC
[21] = system: K-562 leukemia
[22] = system: MALME-3M melanoma
[23] = system: OVCAR-5 ovarian
[24] = system: IGROV1 ovarian
[25] = system: DU-145 prostate
[26] = system: NCI/ADR-RES ovarian
[27] = system: A549 NSCLC
[28] = system: HCC-2998 colon
[29] = system: RXF 393 renal
[30] = system: NCI-H23 lung
[31] = system: OVCAR-3 ovarian
[32] = system: NCI-H522 lung
[33] = system: HOP-92 NSCLC
[34] = system: HOP-62 NSCLC
[35] = system: SN12C renal
[36] = system: SF-539 CNS
[37] = system: LOX IMVI melanoma
[38] = system: U251 CNS
[39] = system: NCI-H226 lung
[40] = system: HCT-15 colon
[41] = system: HCT-116 colon
[42] = system: UO-31 renal
[43] = system: SF-268 CNS
[44] = system: HL-60(TB) leukemia
[45] = system: MDA-MB-435
[46] = system: COLO 205 colon
[47] = system: HT29 colon
[48] = system: SW-620 colon
[49] = system: CAKI-1 renal
[50] = system: SF-295 CNS
[51] = system: SK-OV-3 ovarian
[52] = system: HS 578T breast
[53] = system: SNB-19 CNS
[54] = system: KM12 colon
[55] = system: UACC-257 melanoma

COc1ccccc1C1C(C#N)=C(N)Oc2cc(O)ccc21 (stereo not given)
GI50 [1]: 12 µM
TGI [1]: 29.1 µM
GI50 [2]: 35.2 µM
TGI [2]: > 100 µM
GI50 [3]: 13.4 µM
TGI [3]: 35 µM
GI50 [4]: 13.9 µM
TGI [4]: 76.3 µM
GI50 [5]: 23 µM
TGI [5]: > 100 µM
GI50 [6]: 4.34 µM
TGI [6]: 24.8 µM
GI50 [7]: 17.7 µM
TGI [7]: 49.7 µM
GI50 [8]: 24 µM
TGI [8]: 80.4 µM
GI50 [9]: 20 µM
TGI [9]: 58.8 µM
GI50 [10]: 13.1 µM
TGI [10]: 45.4 µM
GI50 [11]: 25.3 µM
TGI [11]: 85.9 µM
GI50 [12]: 22.4 µM
TGI [12]: 71.9 µM
GI50 [13]: 36.8 µM
TGI [13]: > 100 µM
GI50 [14]: 23 µM
TGI [14]: 56.4 µM
GI50 [15]: 22.3 µM
TGI [15]: 84 µM
GI50 [16]: 27.6 µM
TGI [16]: > 100 µM
GI50 [17]: 25 µM
TGI [17]: 86.1 µM
GI50 [18]: 3.48 µM
TGI [18]: 21.1 µM
GI50 [19]: 5.99 µM
TGI [19]: 19.8 µM
GI50 [20]: 34.6 µM
TGI [20]: > 100 µM
GI50 [21]: 4.68 µM
TGI [21]: > 100 µM
GI50 [22]: 21.6 µM
TGI [22]: 88.6 µM
GI50 [23]: 29.2 µM
TGI [23]: > 100 µM
GI50 [24]: 1.98 µM
TGI [24]: 25.4 µM
GI50 [25]: 26 µM
TGI [25]: 94.1 µM
GI50 [26]: 8.56 µM
TGI [26]: 68.2 µM
GI50 [27]: 26.8 µM
TGI [27]: > 100 µM
GI50 [28]: 11.7 µM
TGI [28]: 35.5 µM
GI50 [29]: 23.2 µM
TGI [29]: 75.6 µM
GI50 [30]: 17.6 µM
TGI [30]: 49.4 µM
GI50 [31]: 13 µM
TGI [31]: 51.4 µM
GI50 [32]: 3.15 µM
TGI [32]: 17.1 µM
GI50 [33]: 4.77 µM
TGI [33]: 33.7 µM
GI50 [34]: 15.8 µM
TGI [34]: 60.2 µM
GI50 [35]: 11.6 µM
TGI [35]: 31.1 µM
GI50 [36]: 24.7 µM
TGI [36]: 66 µM
GI50 [37]: 30.8 µM
TGI [37]: > 100 µM
GI50 [38]: 19.8 µM
TGI [38]: 62.6 µM
GI50 [39]: 13.7 µM
TGI [39]: 35 µM
GI50 [40]: 23.9 µM
TGI [40]: > 100 µM
GI50 [41]: 12.5 µM
TGI [41]: 26.4 µM
GI50 [42]: 29.3 µM
TGI [42]: > 100 µM
GI50 [43]: 19.4 µM
TGI [43]: 91 µM
GI50 [44]: 18.8 µM
TGI [44]: > 100 µM
GI50 [45]: 4.1 µM
TGI [45]: 9.52 µM
GI50 [46]: 15.8 µM
TGI [46]: 36.6 µM
GI50 [47]: 16 µM
TGI [47]: 45.1 µM
GI50 [48]: 29.1 µM
TGI [48]: > 100 µM
GI50 [49]: 17.7 µM
TGI [49]: 68.9 µM
GI50 [50]: 16 µM
TGI [50]: 80.6 µM
GI50 [51]: 16.8 µM
TGI [51]: 44.6 µM
GI50 [52]: 34.1 µM
TGI [52]: > 100 µM
GI50 [53]: 21.3 µM
TGI [53]: 99.8 µM
GI50 [54]: 9.57 µM
TGI [54]: > 100 µM
GI50 [55]: 27.7 µM
TGI [55]: 94.6 µM
